Patent US12018278B2, “Methods for chemically induced lineage reprogramming” (BeiHao Stem Cell and Regenerative Medicine Research …, priority 2017, dated 2024)

Columns and labels:
[1] = system: induced TauEGFP-positive cells; assay: Whole-cell patch clamp recordings on induced TauEGFP-positive neurons; format: cell-based, mouse; settings: for spontaneous excitatory postsynaptic currents (EPSCs): 20 μM CNQX plus 50 μM AP5, after co-culturing with primary astrocytes
Description: Whole-cell patch clamp recordings were performed as previously described (Li et al., Cell Stem Cell, 17:195-203 (2015)). The artificial cerebrospinal fluid extracellular solution contained (in mM) 141 NaCl, 2.5 KCl, 1.3 MgCl2, 2.4 CaCl2, 1.25 NaH2PO4, 10 glucose and 10 HEPES, the pH was adjusted to 7.4 with NaOH. Patch pipettes were pulled (˜5 MΩ tip resistance) with a P97 micropipette puller (Sutter Instruments) filled with internal pipette solution contained (in mM) 140 potassium gluconate, 1 CaCl2, 10 EGTA, 2 MgCl2, 5 Na2ATP, and 10 HEPES, the pH was adjusted to 7.4 with KOH. Patch-clamp recordings were taken using an EPC-10 amplifier (HEKA) with PatchMaster. Cell membrane potentials were held typically at −80 mV and depolarized to test potentials from −80 to +80 mV in 10 mV increments to record the sodium and potassium currents. The sample was 20 μs and sweep intervals were 2 s. For current-clamp recordings, a hyperpolarized current was injected into chemical neurons to membrane potentials around −70 mV. Action potentials were elicited by step-depolarized currents with sweep intervals of 3 s. The cells were held at 0 pA to record the resting membrane potentials. In current-clamp mode, the sample frequency was 25 kHz. Induced neurons identified by GFP were co-cultured with mouse primary astrocytes to record spontaneous excitatory postsynaptic currents (sEPSCs) or spontaneous inhibitory postsynaptic currents (sIPSCs). The induced neurons were held at a holding potential of −70 mV (close to the reversal potential of chloride) and 0 mV, respectively. The data were continuously digitized at 20 kHz. For neurotransmitter response, Glutamate (100 μM, Sigma-Aldrich) was dissolved in ACSF, loaded into a pipette, and puffed onto hciN cells using a picosprizer III (Parker Instrument) with 10 psi and […]. All recordings were conducted at room temperature.

[2] = system: mouse adult lung fibroblasts (MAFs); assay: Induction of XEN-like cells from adult fibroblasts; format: cell-based; settings: vitamin C (50 μg/ml) and CH55 (1 μM) added together to stage 1 medium; 12 days' induction
Description: (§1) Stage 1 culture medium preparation: KnockOut DMEM (Invitrogen) supplemented with 10% KSR (Invitrogen), 10% FBS (Pan-Biotech), 1% GlutaMAX™-I (Invitrogen), 1% NEAA (Invitrogen), 0.055 mM β-ME (Sigma), 1% penicillin-streptomycin (Invitrogen), 100 ng/ml bFGF (Origene) containing the small-molecule cocktail: 0.5 mM VPA, 2-4 μM TD114-2 or 20 μM CHIR, 10 μM 616452, 10 μM Tranylcypromine, 10-50 μM Forskolin, 0.05 μM AM580 and 5 μM EPZ004777 (VT6TFAE or VC6TFAE).

passaged XEN-like cells = assay: Toxicity to passaged XEN-like cells in stage 2 neural induction medium; format: cell-based, mouse; settings: 50 μM
Description: For neural induction from passaged XEN-like cells, cells were plated at 50,000-100,000 cells per well of a 6-well plate (with gelatin-coated) in stage 1 medium (day 0). Until passaged cells become 70-80% confluence on day2 or day3, switch the XEN-like cells into stage 2 neural induction medium. After 12-20 days, TauEGFP-positive colonies emerged. Considering that FSK used at high concentration 50 μM was toxic to passaged XEN-like cells at stage 2, a concentration of 10-20 μM in neural induction culture medium on passaged XEN-like cells is preferred.

CeXEN cells = assay: Toxicity to CeXEN cells in stage 2 neural induction medium; format: cell-based, mouse; settings: 50 μM
Description: CeXEN (chemically-derived eXEN) cells with TauEGFP reporter were derived from E3.5 blastocysts using stage 1 culture medium as previously reported (Zhao et al., Cell, 163:1678-1691 (2015)). Medium was changed every day and the cells were passaged at 1:20 to 1:30 every 3 days.
1. For chemical induction, CeXEN cells were plated at 50,000-100,000 cells per well of a 6-well plate (with gelatin-coated) in stage 1 medium (day 0).
2. On day2 or day3 until 70-80% confluence, cells were switched into stage 2 neural induction culture medium for 12-20 days and TauEGFP-positive cells were generated.
A relatively low initial cell density is beneficial for lineage induction from passaged CeXEN cells since the high proliferation rate of CeXEN cells. Considering that FSK used at high concentration 50 μM was toxic to CeXEN cells at stage 2, a concentration of 10-20 μM in neural induction culture medium on CeXEN cells is preferred.

XEN-like cells [3] = assay: Stage 2 neural induction of TauEGFP-positive cells from XEN-like cells (FACS); format: cell-based, mouse; settings: 0.1 μM LDN193189 and 5 μM SB431542 added to FCD; not essential to induce neurons
Description: On day 12, cells were switched into stage 2 neural specification medium. After 8-12 days induction by the stage 2 culture medium, TauEGFP-positive colonies were generated. The TauEGFP-positive colonies were further re-plated to co-culture with primary astrocytes or primary neurons for maturation.
The induced efficiency of the TauEGFP-positive cells was estimated using a FACS Calibur flow cytometer (Becton Dickinson), and the flow cytometry data were analyzed using FlowJo. For intracellular flow cytometry analyses, single-cell suspensions were stained with antibodies and analyzed using a BD FACSCalibur.

fibroblasts = assay: Stage 1 chemical induction of XEN-like primary colonies from fibroblasts; format: cell-based, mouse; settings: replacing CHIR99021 with TD114-2 in the seven-compound cocktail; XEN-like state not altered
Description: as §1, with “VC6TFAE). For mouse adult lung fibroblasts (MAFs) induction, 1 μM CH55 and 50 μg/ml Vitamin C (VC) were added enhance the induction efficiency.” for “VC6TFAE).”
TauEGFP fibroblasts were prepared as previously reported (Li et al., Cell Stem Cell, 17:195-203 (2015)). Fibroblasts were seeded at a density of 30,000-50,000 cells per well of a 6-well plate or 300,000 cells per 100 mm dish (day −1) (Fibroblast medium−DMEM basal medium+10% FBS++beta-Me(0.055 mM)+1% PS). The culture plates or dishes were precoated with 0.1% gelatin.
The medium was changed to Stage 1 culture medium (Day 0). For stage 1 chemical reprogramming, cells were induced by the culture medium containing 0.5 mM VPA, 2-4 μM TD114-2 or 20 μM CHIR, 10 μM 616452, 10 μM Tranylcypromine, 10-50 μM Forskolin, 0.05 μM AM580 and 5 μM EPZ004777(VT6TFAE or VC6TFAE)) for 12 days. Culture medium was refreshed every 4 days during the inducing period. XEN-like colonies were formed at about day 6-8.

XEN-like colonies = assay: Long-term passaging and expansion of XEN-like cells; format: cell-based, mouse; settings: TD114-2 based culture condition; ratio 1:20-30 every 3-4 days
From the text: Day 12 induced)(EN-like colonies (P0) were trypsinized from whole well and re-plated onto gelatin-coated culture plates at a ratio of 1:10-20 in stage 1 medium for the first passage. After the)(EN-like cells at Passage 1 become confluence, passage the cells at a ratio of 1:20-30 every 3-4 days in stage 1 medium. The XEN-like cells can be long term expanded at stage 1 medium for more than 20 passages with lineage specifying potentials.
For a single primary XEN-like colony passaging, feeder layers of mitomycin C-treated MEFs are needed. Pick up the a single primary XEN-like colony with 1 ml syringe, trypsinize for 5 min, and neutralize with stage 1 culture medium, then pipette up and down to obtain a single-cell suspension. Seed the cell suspension on feeder layers with stage 1 culture medium for further expansion. The subsequent passaging of XEN-like cells can be feeder-free.

XEN-like cells [4] = assay: qRT-PCR of neural, fibroblast and XEN genes in the absence of single Stage 2 medium components; format: cell-based, mouse; settings: genes examined in the absence of the factor; FIG. 1F

Question: For `NC(CCCP(=O)(O)O)C(=O)O` (stereo not shown) [AP5, 2-amino-5-phosphonovaleric acid], which “spontaneous excitatory postsynaptic currents (EPSCs)” value [1] is on record?
Answer: Its value is “blocked”.

Question: For `CC(C)(C)c1cc(C(=O)/C=C/c2ccc(C(=O)O)cc2)cc(C(C)(C)C)c1` [CH55], which “efficiency of generating XEN-like cells from adult fibroblasts” value [2] is on record?
Answer: The value was “significantly improved”.

Question: How did the “spontaneous excitatory postsynaptic currents (EPSCs)” value [1] turn out when `N#Cc1cc2[nH]c(=O)c(=O)[nH]c2cc1[N+](=O)[O-]` [CNQX, 6-cyano-1007-nitroquinoxaline-2,3-dione] was run?
Answer: Its value is “blocked”.

Question: What does the source list for `C=C[C@@]1(C)CC(=O)[C@]2(O)[C@@]3(C)[C@@H](O)CCC(C)(C)[C@@H]3[C@H](O)[C@H](OC(C)=O)[C@@]2(C)O1` [Forskolin]?
Answer: toxicity to passaged XEN-like cells at stage 2 (passaged XEN-like cells): toxic; toxicity to CeXEN cells at stage 2 (CeXEN cells): toxic

Question: For `N[C@@H](CCC(=O)O)C(=O)O` [Glutamate], which “membrane currents on focal application” value ([1]; 100 μM, focal application) is on record?
Answer: Its value is “induction of inward membrane currents”.

Question: With `c1ccc2c(-c3cnn4cc(-c5ccc(N6CCNCC6)cc5)cnc34)ccnc2c1` [LDN193189, 4-(6-(4-(piperazin-1-yl)phenyl)pyrazolo[1,5-a]pyrimidin-3-yl)quinolone] as the molecule, how does the “effect on neuron induction efficiency in stage 2 medium” value (XEN-like cells [3]) read?
Answer: Its value is “favorable to enhance the induction efficiency”.

Question: For `NC(=O)c1ccc(-c2nc(-c3ccc4c(c3)OCO4)c(-c3ccccn3)[nH]2)cc1` [SB431542, 4-[4-(1,3-benzodioxol-5-yl)-5-(2-pyridinyl)-1H-imidazol-2-yl]benzamide], which “effect on neuron induction efficiency in stage 2 medium” value (XEN-like cells [3]) is on record?
Answer: Its value is “favorable to enhance the induction efficiency”.

Question: Which results are given for `O=C1NC(=O)C2=C1c1cn(c3ccccc13)CCOCCOCCOCCOCCn1cc2c2ccccc21` [TD114-2, 10,11,13,14,16,17,19,20,22,23-decahydro-9,4:24, 29-dimetheno-1H-dibenzo[n,t] pyrrolo[3,4-q] [1,4,7,10,13,22]-tetraoxadiazacyclotetracosine-31,33(32H) dione]?
Answer: yield of the primary colonies, enhancement (fibroblasts): 3 fold; long term expansion of XEN-like colonies, passages tested (XEN-like colonies): at least 20 passages

Question: For `NC1=N[C@H](O)[C@H]2[C@H]3O[C@]4(O)O[C@@H]([C@@H](O)[C@@]2(N1)[C@@H]4O)[C@]3(O)CO` [TTX, tetrodotoxin], which “sodium currents (inward currents, voltage-clamp)” value [1] is on record?
Answer: The value was “blocked”.

Question: How did the “efficiency of generating XEN-like cells from adult fibroblasts” value [2] turn out when `O=C1O[C@H]([C@@H](O)CO)C(O)=C1O` [vitamin C] was run?
Answer: The value was “significantly improved”.

B1: GDNF: growth factor in Stage 2 neural induction medium, 20 ng/ml (protein, UniProt P39905 78-211, looked up)
Glial cell line-derived …: SPDKQMAVLPRRERNRQAAAANPENSRGKGRRGQRGKNRGCVLTAIHLNVTDLGLGYETKEELIFRYCSGSCDAAETTYDKILKNLSRNRRLVSDKVGQACCRPIAFDDDLSFLDDNLVYHILRKHSAKRCGCI
Question: B1 was tested. Which “role of the stage 2 medium component for neural-, fibroblast- and XEN-specific gene expression” value (XEN-like cells [4]) did it give?
Answer: Its value is “important for inducing neuronal mater and functional genes”.
